Values quoted from earlier work as cited in US20230404078A1, “HERBICIDAL COMBINATIONS” (priority 2020, published 2023).

How the values were obtained:
[1] = test system: wheat; conditions: in vivo
[2] = test system: broadleaf weeds; conditions: Clethodim itself

SMILES: COc1cc(OC)n2nc(NS(=O)(=O)c3c(C(F)(F)F)ccnc3OC)nc2n1 [Pyroxsulam]
- injury in the wheat crop [1]: greater than 10%
- visual injury in wheat [1]: up to 10%

SMILES: CCSC(C)CC1CC(=O)C(/C(CC)=N/OC/C=C/Cl)=C(O)C1 (stereo not drawn) [Clethodim, 2-[1-[[[(2£)-3-chloro-2-propen-l-yl]oxy]imino]propyl]-5-[2-(ethylthio)propyl]-3-hydroxy-2-cyclohexen-1-one]
- efficacy against broadleaf weeds [2]: no efficacy
